The text below walks through data of ChEMBL document CHEMBL1145767, “Conformational restriction of methionyl tRNA synthetase inhibitors leading to analogues with potent inhibition and excellent gram-positive antibacterial activity” (Bioorg Med Chem Lett, 2003).

Type in all cases: functional
Assay [1] concerns Enterococcus faecalis. In words: Antibacterial activity against Enterococcus faecalis 1.
For assay [2], the system named is Staphylococcus aureus. In words: Antibacterial activity against Staphylococcus aureus Oxford.
Assay [3] has as its system Staphylococcus aureus. In words: Inhibitory activity against Staphylococcus aureus MRS.
Another assay concerns Enterococcus faecium. In words: Antibacterial activity against Enterococcus faecium.
Assay [4] relates to Staphylococcus aureus. In words: Antibacterial activity against Staphylococcus aureus.
Assay [5] deals with Enterococcus faecalis. In words: Antibacterial activity against Enterococcus faecalis.
Assay [6] has as its system Staphylococcus epidermidis. In words: Antibacterial activity against Staphylococcus epidermidis.

Values after ≈ are worked out from the molar mass of the structure shown.

Consider `Oc1cc(NC[C@H]2OCC[C@@H]2NCc2ccc(Cl)c(Cl)c2)nc2ccccc12`, for which the MIC in the assay on Enterococcus faecalis [1] turned out to be 4 µg/mL (≈ 9.56 µM); in the assay on Staphylococcus aureus [2], 64 µg/mL (≈ 153 µM). The molecule further showed an IC50 with Staphylococcus aureus [3] of 78 nM.

Turning to `CCOc1c(Br)cc(Br)cc1CN[C@H]1CCC[C@@H]1CNc1cc(O)c2ccccc2n1`, the MIC against Enterococcus faecalis [1] and in the assay with Staphylococcus aureus [2] was under 0.06 µg/mL each time. Moreover, the MIC90 against Enterococcus faecium was under 0.016 µg/mL; in the assay with Staphylococcus aureus [4] it was 0.06 µg/mL (≈ 0.109 µM); in the assay on Enterococcus faecalis [5], 0.03 µg/mL (≈ 0.0546 µM); in assay [6], 0.125 µg/mL (≈ 0.228 µM). For the same molecule, the IC50 in the assay on Staphylococcus aureus [3] was found to be 7.6 nM.

Take `Oc1cc(NC[C@H]2CC[C@H]2NCc2ccc(Cl)c(Cl)c2)nc2ccccc12` (racemic): the figures for the MIC with Enterococcus faecalis [1] and in the assay with Staphylococcus aureus [2] were 16 µg/mL (≈ 39.8 µM) and over 64 µg/mL, respectively. In the assay on Staphylococcus aureus [3], the IC50 worked out at 110 nM.

With `Oc1cc(N[C@@H]2CCC[C@H](NCc3ccc(Cl)c(Cl)c3)C2)nc2ccccc12` (racemic), the MIC in the assay with Enterococcus faecalis [1] was found to be 32 µg/mL (≈ 76.9 µM); against Staphylococcus aureus [2], 64 µg/mL (≈ 154 µM). Further, in the assay with Staphylococcus aureus [3], it took 150 nM to reach half-maximal inhibition (IC50).

Turning to `Oc1cc(N[C@H]2CCC[C@H](NCc3ccc(Cl)c(Cl)c3)C2)nc2ccccc12` (racemic), the MIC against Enterococcus faecalis [1] and against Staphylococcus aureus [2] was over 64 µg/mL in each case. Also, the IC50 with Staphylococcus aureus [3] was found to be 43 nM.

Consider `Oc1cc(NCC2=CCCC2NCc2ccc(Cl)c(Cl)c2)nc2ccccc12` (racemic), for which the MIC against Enterococcus faecalis [1] and against Staphylococcus aureus [2] was over 64 µg/mL in each case. Besides, 10 nM corresponded to half-maximal inhibition in the assay on Staphylococcus aureus [3] (IC50).

Turning to `Oc1cc(NC[C@@H]2CCC[C@@H]2NCc2ccc(Cl)c(Cl)c2)nc2ccccc12`, the MIC in the assay on Enterococcus faecalis [1] came out at 1 µg/mL (≈ 2.4 µM); against Staphylococcus aureus [2], 8 µg/mL (≈ 19.2 µM). Moreover, the 50% inhibitory concentration (IC50) in the assay with Staphylococcus aureus [3] is 100 nM.

Turning to `Oc1cc(NC[C@H]2CC[C@@H]2NCc2ccc(Cl)c(Cl)c2)nc2ccccc12` (racemic), the MIC in the assay with Enterococcus faecalis [1] was 0.25 µg/mL (≈ 0.621 µM); in the assay with Staphylococcus aureus [2], 2 µg/mL (≈ 4.97 µM). Moreover, half-maximal inhibition in the assay on Staphylococcus aureus [3] (IC50) required 12 nM.

For the molecule `Oc1cc(NCc2ccccc2NCc2ccc(Cl)c(Cl)c2)nc2ccccc12`, the MIC with Enterococcus faecalis [1] and against Staphylococcus aureus [2] was over 64 µg/mL in each case. The same molecule displayed an IC50 in the assay on Staphylococcus aureus [3] of 56 nM.

Regarding `Oc1cc(N[C@H]2CC[C@H](NCc3ccc(Cl)c(Cl)c3)CC2)nc2ccccc12`, the minimal inhibitory concentration (MIC) in the assay with Enterococcus faecalis [1] and against Staphylococcus aureus [2] was over 64 µg/mL throughout. Moreover, the IC50 in the assay on Staphylococcus aureus [3] is 2300 nM.

On to `Oc1cc(NC[C@H]2CCC[C@@H]2NCc2cc(Br)cc(Br)c2)nc2ccccc12`, for which the MIC in the assay with Enterococcus faecalis [1] and against Staphylococcus aureus [2] was under 0.06 µg/mL throughout. Also, the IC50 in the assay with Staphylococcus aureus [3] is 10 nM.

For the molecule `Oc1cc(NC[C@@H]2CCC[C@H]2NCc2ccc(Cl)c(Cl)c2)nc2ccccc12`, the MIC against Enterococcus faecalis [1] is 32 µg/mL (≈ 76.9 µM); against Staphylococcus aureus [2] it was over 64 µg/mL. In the assay on Staphylococcus aureus [3], this molecule came in with an IC50 of 700 nM.

Consider `Oc1cc(NC[C@H]2CCC[C@@H]2NCc2ccc(Cl)c(Cl)c2)nc2ccccc12`, for which the results for the MIC with Enterococcus faecalis [1] and in the assay with Staphylococcus aureus [2] were 0.125 µg/mL (≈ 0.3 µM) and 1 µg/mL (≈ 2.4 µM), respectively. In addition, in the assay on Staphylococcus aureus [3], the IC50 stood at 9 nM.

For `Oc1cc(NC[C@H]2CCC[C@H]2NCc2ccc(Cl)c(Cl)c2)nc2ccccc12`, the MIC worked out at 8 µg/mL (≈ 19.2 µM) in the assay with Enterococcus faecalis [1] and 16 µg/mL (≈ 38.4 µM) in the assay with Staphylococcus aureus [2]. The same molecule returned an IC50 in the assay with Staphylococcus aureus [3] of 18 nM.
